# Molecular target: T1, Recombinant human cathepsin A (Homo sapiens, UniProt P10619)
# T1 construct: Recombinant human cathepsin A (residues 29-480, with a C-terminal 10-His tag); 10-His (C); purchased R&D Systems 1049-SE
# T1 sequence (P10619 29-326 limits assumed): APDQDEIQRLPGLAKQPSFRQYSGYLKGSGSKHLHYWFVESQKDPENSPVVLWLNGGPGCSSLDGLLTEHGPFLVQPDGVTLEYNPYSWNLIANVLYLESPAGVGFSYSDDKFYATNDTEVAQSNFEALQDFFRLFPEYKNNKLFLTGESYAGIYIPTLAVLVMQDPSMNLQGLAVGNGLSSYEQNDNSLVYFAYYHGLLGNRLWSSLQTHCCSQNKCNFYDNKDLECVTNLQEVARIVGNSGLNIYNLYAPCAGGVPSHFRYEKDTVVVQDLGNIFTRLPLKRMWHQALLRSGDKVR
# T1 sequence (P10619 327-480 limits assumed): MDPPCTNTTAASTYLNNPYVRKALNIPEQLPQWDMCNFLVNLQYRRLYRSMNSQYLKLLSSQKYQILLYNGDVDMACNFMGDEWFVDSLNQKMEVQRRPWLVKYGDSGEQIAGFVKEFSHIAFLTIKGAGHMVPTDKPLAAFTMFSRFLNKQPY
# Test: Cathepsin A inhibitory activity
# Assay type: biochemical
# Settings: activated recombinant human cathepsin A 833 ng/ml, Bodipy FL-labeled bradykinin substrate 2 μM, pH 5.5, room temperature
# Procedure: a) Cathepsin A Inhibitory Activity
# Recombinant human cathepsin A (residues 29-480, with a C-terminal 10-His tag; R&D Systems, #1049-SE) was proteolytically activated with recombinant human cathepsin L (R&D Systems, #952-CY). Briefly, cathepsin A was incubated at 10 μg/ml with cathepsin L at 1 μg/ml in activation buffer (25 mM 2-(morpholin-4-yl)-ethanesulfonic acid (MES), pH 6.0, containing 5 mM dithiothreitol (DTT)) for 15 min at 37° C. Cathepsin L activity was then stopped by the addition of the cysteine protease inhibitor E-64 (N-(trans-epoxysuccinyl)-L-leucine-4-guanidinobutylamide; Sigma-Aldrich, # E3132; dissolved in activation buffer/DMSO) to a final concentration of 10 μM.
# The activated cathepsin A was diluted in assay buffer (25 mM MES, pH 5.5, containing 5 mM DTT) and mixed with the test compound (dissolved in assay buffer containing (v/v) 3% DMSO) or, in the control experiments, with the vehicle in a multiple assay plate. After incubation for 15 min at room temperature, as substrate then bradykinin carrying an N-terminal ®Bodipy FL (4,4-difluoro-5,7-dimethyl-4-bora-3a,4a-diaza-s-indacene-3-propionyl) label (JPT Peptide Technologies GmbH; dissolved in assay buffer) was added to the mixture. The final concentration of cathepsin A was 833 ng/ml and the final concentration of labeled bradykinin 2 μM. After incubation for 15 min at room temperature the reaction was stopped by the addition of stop buffer (130 mM 2-(4-(2-hydroxy-ethyl)-piperazin-1-yl)-ethanesulfonic acid, pH 7.4, containing (v/v) 0.013% ®Triton X-100, 0.13% Coating Reagent 3 (Caliper Life Sciences), 6.5% DMSO and 20 μM ebelactone B (Sigma, # E0886)).
# Uncleaved substrate and product were then separated by a microfluidic capillary electrophoresis on a LabChip® 3000 Drug Discovery System (12-Sipper-Chip; Caliper Life Sciences) and quantified by determination of the respective peak areas. Substrate turnover was calculated by dividing product peak area by the sum of substrate and product peak areas, and the enzyme activity and the inhibitory effect of the test compound thus quantified. From the percentage of inhibition of cathepsin A activity observed with the test compound at several concentrations, the inhibitory concentration IC50, i.e. the concentration which effects 50% inhibition of enzyme activity was, calculated.
row,SMILES,IC50 [nM]
1,"O=C(O)C[C@H](NC(=O)c1csc(-c2cccc(Cl)c2)n1)c1ccccc1Cl [Example 31, (S)-3-(2-Chloro-phenyl)-3-{[2-(3-chloro-phenyl)-thiazole-4-carbonyl]-amino}-propionic acid]",703
2,"O=C(O)C[C@H](NC(=O)c1csc(-c2ccc(Cl)cc2)n1)c1ccccc1Cl [Example 32, (S)-3-(2-Chloro-phenyl)-3-{[2-(4-chloro-phenyl)-thiazole-4-carbonyl]-amino}-propionic acid]",1400
3,"O=C(O)C[C@H](NC(=O)c1csc(-c2ccc(C(F)(F)F)cc2)n1)c1ccccc1Cl [Example 33, (S)-3-(2-Chloro-phenyl)-3-{[2-(4-trifluoromethyl-phenyl)-thiazole-4-carbonyl]-amino}-propionic acid]",3110
4,"Cc1ccccc1-c1nc(C(=O)N[C@@H](CC(=O)O)c2ccccc2F)cs1 [Example 34, (S)-3-(2-Fluoro-phenyl)-3-[(2-o-tolyl-thiazole-4-carbonyl)-amino]-propionic acid]",313
5,"O=C(O)C[C@H](NC(=O)c1csc(-c2ccccc2)n1)c1ccccc1F [Example 35, (S)-3-(2-Fluoro-phenyl)-3-[(2-phenyl-thiazole-4-carbonyl)-amino]-propionic acid]",1480
6,"O=C(O)C[C@H](NC(=O)c1csc(-c2ccccc2F)n1)c1ccccc1F [Example 36, (S)-3-(2-Fluoro-phenyl)-3-{[2-(2-fluoro-phenyl)-thiazole-4-carbonyl]-amino}-propionic acid]",659
7,"O=C(O)C[C@H](NC(=O)c1csc(-c2ccc(C(F)(F)F)cc2)n1)c1ccccc1F [Example 37, (S)-3-(2-Fluoro-phenyl)-3-{[2-(4-trifluoromethyl-phenyl)-thiazole-4-carbonyl]-amino}-propionic acid]",14700
8,"O=C(O)C[C@H](NC(=O)c1csc(-c2ccc(C(F)(F)F)cc2)n1)c1ccccc1C(F)(F)F [Example 38, (S)-3-(2-Trifluoromethyl-phenyl)-3-{[2-(4-trifluoromethyl-phenyl)-thiazole-4-carbonyl]-amino}-propionic acid]",23300
9,"Cc1ccccc1-c1nc(C(=O)N[C@@H](CC(=O)O)c2cccc(Cl)c2)cs1 [Example 39, (S)-3-(3-Chloro-phenyl)-3-[(2-o-tolyl-thiazole-4-carbonyl)-amino]-propionic acid]",807
10,"O=C(O)C[C@H](NC(=O)c1csc(-c2ccccc2)n1)c1cccc(Cl)c1 [Example 40, (S)-3-(3-Chloro-phenyl)-3-[(2-phenyl-thiazole-4-carbonyl)-amino]-propionic acid]",821
11,"O=C(O)C[C@H](NC(=O)c1csc(-c2cccc(Cl)c2Cl)n1)c1cccc(Cl)c1 [Example 41, (S)-3-(3-Chloro-phenyl)-3-{[2-(2,3-dichloro-phenyl)-thiazole-4-carbonyl]-amino}-propionic acid]",583
12,"O=C(O)C[C@H](NC(=O)c1csc(-c2ccccc2Cl)n1)c1cccc(Cl)c1 [Example 42, (S)-3-(3-Chloro-phenyl)-3-{[2-(2-chloro-phenyl)-thiazole-4-carbonyl]-amino}-propionic acid]",238
13,"O=C(O)C[C@H](NC(=O)c1csc(-c2ccccc2F)n1)c1cccc(Cl)c1 [Example 43, (S)-3-(3-Chloro-phenyl)-3-{[2-(2-fluoro-phenyl)-thiazole-4-carbonyl]-amino}-propionic acid]",694
14,"O=C(O)C[C@H](NC(=O)c1csc(-c2cccc(Cl)c2)n1)c1cccc(Cl)c1 [Example 44, (S)-3-(3-Chloro-phenyl)-3-{[2-(3-chloro-phenyl)-thiazole-4-carbonyl]-amino}-propionic acid]",2980
15,"O=C(O)C[C@H](NC(=O)c1csc(-c2ccc(Cl)cc2)n1)c1cccc(Cl)c1 [Example 45, (S)-3-(3-Chloro-phenyl)-3-{[2-(4-chloro-phenyl)-thiazole-4-carbonyl]-amino}-propionic acid]",3540
16,"O=C(O)C[C@H](NC(=O)c1csc(-c2ccc(C(F)(F)F)cc2)n1)c1cccc(Cl)c1 [Example 46, (S)-3-(3-Chloro-phenyl)-3-{[2-(4-trifluoromethyl-phenyl)-thiazole-4-carbonyl]-amino}-propionic acid]",10500
17,"Cc1ccccc1-c1nc(C(=O)N[C@@H](CC(=O)O)c2cccc(F)c2)cs1 [Example 47, (S)-3-(3-Fluoro-phenyl)-3-[(2-o-tolyl-thiazole-4-carbonyl)-amino]-propionic acid]",280
18,"O=C(O)C[C@H](NC(=O)c1csc(-c2ccccc2)n1)c1cccc(F)c1 [Example 48, (S)-3-(3-Fluoro-phenyl)-3-[(2-phenyl-thiazole-4-carbonyl)-amino]-propionic acid]",955
19,"O=C(O)C[C@H](NC(=O)c1csc(-c2ccccc2F)n1)c1cccc(F)c1 [Example 49, (S)-3-(3-Fluoro-phenyl)-3-{[2-(2-fluoro-phenyl)-thiazole-4-carbonyl]-amino}-propionic acid]",724
20,"O=C(O)C[C@H](NC(=O)c1csc(-c2ccc(C(F)(F)F)cc2)n1)c1cccc(F)c1 [Example 50, (S)-3-(3-Fluoro-phenyl)-3-{[2-(4-trifluoromethyl-phenyl)-thiazole-4-carbonyl]-amino}-propionic acid]",> 10000
21,"O=C(O)C[C@H](NC(=O)c1nc(-c2ccccc2)cs1)c1ccc(F)cc1 [Example 51, (S)-3-(4-Fluoro-phenyl)-3-[(4-phenyl-thiazole-2-carbonyl)-amino]-propionic acid]",457
22,"COc1cccc([C@H](CC(=O)O)NC(=O)c2csc(-c3ccccc3)n2)c1 [Example 52, (S)-3-(3-Methoxy-phenyl)-3-[(2-phenyl-thiazole-4-carbonyl)-amino]-propionic acid]",2860
23,"O=C(O)C[C@H](NC(=O)c1nc(-c2ccccc2)cs1)c1ccccc1F [Example 53, (S)-3-(2-Fluoro-phenyl)-3-[(4-phenyl-thiazole-2-carbonyl)-amino]-propionic acid]",1750
24,"Cc1ccccc1-c1nc(C(=O)N[C@@H](CC(=O)O)c2ccc(F)cc2)cs1 [Example 54, (S)-3-(4-Fluoro-phenyl)-3-[(2-o-tolyl-thiazole-4-carbonyl)-amino]-propionic acid]",303
25,"O=C(O)C[C@H](NC(=O)c1nc(-c2ccccc2)cs1)c1cccc(F)c1 [Example 55, (S)-3-(3-Fluoro-phenyl)-3-[(4-phenyl-thiazole-2-carbonyl)-amino]-propionic acid]",542
26,"O=C(O)C[C@H](NC(=O)c1csc(-c2ccccc2F)n1)c1ccc(F)cc1 [Example 56, (S)-3-(4-Fluoro-phenyl)-3-{[2-(2-fluoro-phenyl)-thiazole-4-carbonyl]-amino}-propionic acid]",1050
27,"O=C(N[C@H](C(=O)O)C1CCCCC1)c1csc(-c2cccc(Cl)c2)n1 [Example 57, (S)-{[2-(3-Chloro-phenyl)-thiazole-4-carbonyl]-amino}-cyclohexyl-acetic acid]",> 10000
28,"O=C(N[C@@H](Cc1ccc(Cl)cc1)C(=O)O)c1csc(-c2ccccc2)n1 [Example 58, (S)-3-(4-Chloro-phenyl)-2-[(2-phenyl-thiazole-4-carbonyl)-amino]-propionic acid]",22000
29,"COc1ccc([C@H](CC(=O)O)NC(=O)c2csc(-c3ccccc3)n2)cc1 [Example 59, (S)-3-(4-Methoxy-phenyl)-3-[(2-phenyl-thiazole-4-carbonyl)-amino]-propionic acid]",976
30,"COc1ccc([C@H](CC(=O)O)NC(=O)c2csc(-c3ccc(C(F)(F)F)cc3)n2)cc1 [Example 60, (S)-3-(4-Methoxy-phenyl)-3-{[2-(4-trifluoromethyl-phenyl)-thiazole-4-carbonyl]-amino}-propionic acid]",14800

# Source: patent publication US9174952B2, “Substituted 3-thiazoloamino-propionic acid derivatives and their use as pharmaceuticals” (SANOFI, priority 2011, dated 2015)
